PMC12270677, “Topological isomers of a potent wound healing peptide: Structural insights and implications for bioactivity” (The Journal of Biological Chemistry, 2025)
pEC50: −log10 of the molar value. Positions of bridges follow the written chain, without caps; N, C: chain ends. Residues, ends and D or L forms follow the SMILES beside them. No end group written: not given here.

Columns and labels:
[1] = system: LX-2 human hepatic stellate cell line; assay: Real-time cell proliferation assay (xCELLigence); settings: for Proliferative response of LX-2 cells at concentrations up to 400 nM: 4 days after single treatment, relative to GSP, ANOVA against peptide control; for pEC50: read-out: EC50, LX-2 cell proliferation, xCELLigence SP, 3000 cells per well, serum-free medium, single treatment, proliferation measured 4 days after treatment, relative to scrambled peptide control GSP, variable slope dose-response fit, six replicates per treatment
Experimental: Real-time cell proliferation assays using xCELLigence technology were performed to assess the effects of GRN-P4A isomers and the mutant peptide GRN-L1m on the human hepatic stellate cell line LX-2.
Figure 7 Cell proliferation assay of GRN-P4A isomers and GRN-L1m on human hepatic stellate cells (LX-2). The five peptides were tested across a concentration range of 0.16 nM to 800 nM using the LX-2 human hepatic stellate cell line. Two negative controls were included: serum-free media (SFM) and a scrambled GRN-P4A peptide (GSP). The graphs display variable slope dose–response curves fitted to proliferation data measured 4 days after a single treatment application. […] Proliferation is expressed relative to the scrambled peptide control (GSP) and presented as mean ± SEM. Statistical significance was assessed using one-way ANOVA against the peptide control. ∗ = […], ∗∗ = p < 0.01, ∗∗∗ = p < 0.001, ∗∗∗∗ = p < 0.0001.
The LX-2 human hepatic stellate cell line was generously donated by Dr Lionel Hebbard. Cells were cultured and maintained in Dulbecco’s Modified Eagle Medium/Nutrient Mixture F-12 (DMEM/F12) with GlutaMAX (Gibco) with 2 × antibiotic/antimycotic solution (penicillin, streptomycin, and amphotericin B), supplemented with 2% fetal bovine serum (FBS) (Gibco), at 37°C and 5% CO2. For the negative control, cells were treated with scrambled granulin peptide (GSP) or serum free media diluent. Dried peptide powder was resuspended in Milli-Q water to 170 μM and diluted in serum-free DMEM/F12 media.
Cell proliferation was monitored in real time using the xCELLigence SP system (ACEA Biosciences), following previously established method ([37]). LX2 cells were seeded into a 96-well xCELLigence E-plate (Agilent) at a density of 3000 cells per well in 150 μl of medium, and placed in the xCELLigence system at 37°C with 5% CO2, for overnight monitoring ([38]). Treatments were applied in serum-free medium at 20 μl per well, achieving final concentrations of […] to 800 nM, with six replicates per treatment. The cell index (CI) was continuously monitored using the Real-Time Cell Analysis (RTCA) software (Agilent), with measurements taken every hour over 6 days following treatment. Cell indices were normalized to the baseline values prior to treatment, and cell proliferation was expressed as the relative number of cells compared to the negative control GRN-scrambled peptide (GSP). Statistical analysis was conducted using two-way ANOVA test with Holm-Sidak’s correction comparing controls to treatments at each timepoint with GraphPad Prism 9.3.1 (www.graphpad.com).

[2] = NMR at three temperatures to assess interconversion of isomer 1 into isomer 2; type: physicochemical; settings: αH secondary shifts at 283 K, 290 K and 310 K, 0.2 mM peptide in water/D2O
Experimental: NMR spectra of isomer 1 were recorded at the three different temperatures of 290 K (standard conditions), 310 K (physiological temperature), and 283 K (lower temperature) to assess potential interconversion into isomer 2, the major oxidation product.
Lyophilized peptides were rehydrated in a mixture of 500 μl water and 50 μl D2O, to obtain a final concentration of 0.2 mM. NMR spectra were recorded at temperatures of 283, 290 and 310 K using a 600 MHz Bruker Avance III spectrometer (Bruker) equipped with a cryoprobe. Chemical shifts were referenced to external DSS (sodium trimethylsilylpropanesulfonate). Two-dimensional spectra included [^1H,^1H]-TOCSY, [^1H,^1H]-H/D exchange TOCSY, [^1H,^1H]-NOESY, [^1H,^1H]-COSY, [^1H,^1H]-exclusive correlation spectroscopy, [^1H,^13 C]-HSQC, and [^1H,^15 N]-HSQC with TOCSY and NOESY mixing times of 80 ms and 200 ms, respectively. NMR data processing and analysis were performed using TopSpin (Bruker), and peak assignments were made using CcpNMR Analysis (Collaborative Computing Project for NMR) based on the method outlined by Wuthrich ([28], [29]). Backbone torsion-angle restraints for phi and psi were predicted from ^1H and ^13C chemical-shift analyses, were predicted using TALOS-N ([30]). […] The αH secondary shifts were determined by subtracting random coil ^1H NMR chemical shifts ([19]) from the experimental αH chemical shifts. […]

[3] = system: wound healing in a mouse model; settings: compared with Regranex; cited from earlier work
Source text: This study highlights the structural complexity and bioactivity of isomers in disulfide-rich peptides, with a focus on GRN-P4A. GRN-P4A is a mutant peptide derived from Ov-GRN12 − 35_3s, a truncated form of the liver fluke granulin Ov-GRN-1, known for its potent wound healing properties.

Which Cytotoxicity ([1]; LX-2 cells, xCELLigence, statement in the Discussion, likely due to peptide aggregation) does the source give for “CPDAVYTCRPGQTCCRGLHGYGCC (also: bicyclic or more (positions not given here)) [GRN-P4A isomer 3]” here?
The Cytotoxicity was “displayed cytotoxicity”.

And the “Proliferative response of LX-2 cells at concentrations up to 400 nM” value (shortened to “Proliferative response of LX-2 cells”) ([1]; xCELLigence, listed as isomer 3)?
Its value is “did not produce a statistically significant response”.

With “CPDAVYTCRPGQTCCRGLHGYGCC (also: bicyclic or more (positions not given here)) [GRN-P4A isomer 1, Fully oxidized GRN-P4A topological isomer eluting first in RP-HPLC, mini-granulin fold]” as the compound, how does the “Proliferative response of LX-2 cells” value ([1]; xCELLigence) read?
Its value is “did not produce a statistically significant proliferative response”.

And the “Proliferative response of LX-2 cells” value ([1]; xCELLigence, listed as isomer 1)?
The value was “did not produce a statistically significant response”.

What about the “Conformational stability / interconversion into isomer 2 with temperature” value ([2]; listed as Isomer 1) of the same compound?
The value was “retained its structure across all tested temperatures”.

And the “Conformational stability / interconversion into isomer 2 with temperature” value ([2]; listed as isomer 1)?
Its value is “no evidence of interconversion”.

For “CPDAVYTCRPGQTCCRGLHGYGCC (also: bicyclic or more (positions not given here)) [GRN-P4A, 24-residue peptide containing three disulfide bonds engineered from liver-fluke granulin Ov-GRN-1]”, which “Wound healing activity in a mouse model” value [3] is on record?
Its value is “enhanced wound healing activity”.

With “CPDAVYTCRPGQTCCRGLHGYGCC (also: bicyclic or more (positions not given here)) [GRN-P4A isomer 4]” as the compound, how does the “Cell proliferation at higher concentrations” value ([1]; LX-2 cells, xCELLigence, statement in the Discussion, tested up to 800 nM) read?
The value was “promoted cell proliferation at higher concentrations”.

And the “Proliferative response of LX-2 cells” value ([1]; xCELLigence, listed as isomer 4)?
Its value is “did not produce a statistically significant response”.

With CC(C)C[C@@H]1NC(=O)CNC(=O)[C@H](CCCNC(=N)N)NC(=O)[C@@H]2CSSC[C@@H](C(=O)O)NC(=O)[C@H](CSSC[C@@H]3NC(=O)[C@H]([C@@H](C)O)NC(=O)[C@H](Cc4ccc(O)cc4)NC(=O)[C@H](C(C)C)NC(=O)[C@H](C)NC(=O)[C@H](CC(=O)O)NC(=O)CNC(=O)[C@@H](N)CSSC[C@H](NC(=O)[C@H]([C@@H](C)O)NC(=O)[C@H](CCC(N)=O)NC(=O)CNC(=O)[C@@H]4CCCN4C(=O)[C@H](CCCNC(=N)N)NC3=O)C(=O)N2)NC(=O)CNC(=O)[C@H](Cc2ccc(O)cc2)NC(=O)CNC(=O)[C@H](Cc2c[nH]cn2)NC1=O [GRN-L1m] (H-CGDAVYTCRPGQTCCRGLHGYGCC-OH; disulfide 1-14, 8-23, 15-24) as the compound, how does the pEC50 ([1]; LX-2 cells) read?
Its pEC50 is 6.50.

With CC(C)C[C@@H]1NC(=O)CNC(=O)[C@H](CCCNC(=N)N)NC(=O)[C@@H]2CSSC[C@@H](C(=O)O)NC(=O)[C@H](CSSC[C@@H]3NC(=O)[C@H]([C@@H](C)O)NC(=O)[C@H](Cc4ccc(O)cc4)NC(=O)[C@H](C(C)C)NC(=O)[C@H](C)NC(=O)[C@H](CC(=O)O)NC(=O)[C@@H]4CCCN4C(=O)[C@@H](N)CSSC[C@H](NC(=O)[C@H]([C@@H](C)O)NC(=O)[C@H](CCC(N)=O)NC(=O)CNC(=O)[C@@H]4CCCN4C(=O)[C@H](CCCNC(=N)N)NC3=O)C(=O)N2)NC(=O)CNC(=O)[C@H](Cc2ccc(O)cc2)NC(=O)CNC(=O)[C@H](Cc2c[nH]cn2)NC1=O (single isomer, unassigned) [GRN-P4A isomer 2] as the compound, how does the pEC50 ([1]; LX-2 cells) read?
Its pEC50 is 7.03.
